According to patent US20220380319A1 (Bial - R&D Investments, S.A., priority 2019, published 2022):
Values after ≈ are worked out from the molar mass of the structure shown.

Columns and labels:
[1] = Compound solubility in water
acid ceramidase = molecular target: T1, acid ceramidase (Homo sapiens, UniProt Q13510); test: Acid ceramidase inhibition, biochemical fluorescent assay with cell lysates overexpressing acid ceramidase, substrate Rbm14-12; settings: substrate Rbm14-12 6.3 μM, pH 4.5
T1 construct: Cell lysates overexpressing acid ceramidase were used as the enzyme source; expressed in transfected cells
T1 sequence (Q13510 22-395): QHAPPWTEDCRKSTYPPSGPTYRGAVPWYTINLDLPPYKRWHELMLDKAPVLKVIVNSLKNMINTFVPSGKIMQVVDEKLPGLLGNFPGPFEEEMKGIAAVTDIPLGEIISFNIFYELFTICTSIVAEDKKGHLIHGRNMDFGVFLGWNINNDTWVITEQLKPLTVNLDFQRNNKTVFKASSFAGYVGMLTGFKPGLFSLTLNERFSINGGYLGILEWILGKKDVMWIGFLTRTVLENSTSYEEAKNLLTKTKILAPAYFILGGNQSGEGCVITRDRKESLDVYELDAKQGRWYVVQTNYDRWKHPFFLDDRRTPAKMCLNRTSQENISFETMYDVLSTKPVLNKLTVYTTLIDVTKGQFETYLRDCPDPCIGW
Procedure, shortened: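 Lysate of cells overexpressing acid ceramidase (10 μg protein) preincubated with compound dose series 1 hr at RT in 25 mM NaAC, 100 mM NaCl, pH 4.5, then reacted 1 hr with 6.3 μM Rbm14-12. Stopped with NaIO4/glycine buffer pH 10.6, fluorescence ex360/em446; IC50 by four-parameter fit.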

COCCOc1nc2ccccc2n1C(=O)NCCCc1ccccc1 [Example 191, 2-(2-Methoxyethoxy)-N-(3-phenylpropyl)-1H-benzo[d]imidazole-1-carboxamide] gave a solubility [1] of 0.004 mg/mL (≈ 11.3 µM) and an IC50 (acid ceramidase) of under 0.2 µM.

For CN1CCN(c2cccc3c2ncn3C(=O)NCCCc2ccccc2)CC1 [Example 192, 4-(4-Methylpiperazin-1-yl)-N-(3-phenylpropyl)-1H-benzo[d]imidazole-1-carboxamide], the solubility [1] was 0.012 mg/mL (≈ 31.8 µM) and the IC50 (acid ceramidase) was under 0.2 µM.

For COc1nc2cc(C3CCN(C)CC3)ccc2n1C(=O)NCC(C)C [Example 193, N-iso-Butyl-2-methoxy-5-(1-methylpiperidin-4-yl)-1H-benzo[d]imidazole-1-carboxamide], the solubility [1] was 0.039 mg/mL (≈ 113 µM) and the IC50 (acid ceramidase) was over 1 µM.

Compound COc1nc2cc(N3CCN(C)CC3)ccc2n1C(=O)NCCCc1ccccc1 [Example 194, 2-Methoxy-5-(4-methylpiperazin-1-yl)-N-(3-phenylpropyl)-1H-benzo[d]imidazole-1-carboxamide] has a solubility [1] of 0.03 mg/mL (≈ 73.6 µM) and an IC50 (acid ceramidase) of 0.2 to 1 µM.

Work on COc1nc2cc(C3CCN(C)CC3)ccc2n1C(=O)NCCCc1ccccc1 [Example 195a, 2-Methoxy-5-(1-methylpiperidin-4-yl)-N-(3-phenylpropyl)-1H-benzo[d]imidazole-1-carboxamide] yielded a solubility [1] of 0.043 mg/mL (≈ 106 µM) and an IC50 (acid ceramidase) of over 1 µM.

COc1nc2ccc(C3CCN(C)CC3)cc2n1C(=O)NCCCc1ccccc1 [Example 195b, 2-methoxy-6-(1-methylpiperidin-4-yl)-N-(3-phenylpropyl)-1H-benzo[d]imidazole-1-carboxamide] showed a solubility [1] of 0.039 mg/mL (≈ 95.9 µM) and an IC50 (acid ceramidase) of over 1 µM.

Compound COc1nc2ccc(N3CCOCC3)cc2n1C(=O)NCCCc1nccs1 [Example 196, 2-Methoxy-6-morpholino-N-(3-(thiazol-2-yl)propyl)-1H-benzo[d]imidazole-1-carboxamide] has a solubility [1] of 0.035 mg/mL (≈ 87.2 µM) and an IC50 (acid ceramidase) of 0.2 to 1 µM.

CC(C)CCNC(=O)n1cnc2c(N3CCN(C)C(C)C3)cccc21 (stereo not drawn) [Example 197, 4-(3,4-Dimethylpiperazin-1-yl)-N-iso-pentyl-1H-benzo[d]imidazole-1-carboxamide] gave a solubility [1] of 0.028 mg/mL (≈ 81.5 µM) and an IC50 (acid ceramidase) of 0.2 to 1 µM.

Work on CC(C)CCNC(=O)n1cnc2c(N3CCN4CCCCC4C3)cccc21 (stereo not drawn) [Example 198, 4-(Hexahydro-1H-pyrido[1,2-a]pyrazin-2(6H)-yl)-N-iso-pentyl-1H-benzo[d]imidazole-1-carboxamide] yielded a solubility [1] of 0.028 mg/mL (≈ 75.8 µM) and an IC50 (acid ceramidase) of 0.2 to 1 µM.

With CC(C)CCNC(=O)n1cnc2c(N3CCN4CCOC[C@H]4C3)cccc21 [Example 199, (R)-4-(Hexahydropyrazino[2,1-c][1,4]oxazin-8(1H)-yl)-N-isopentyl-1H-benzo[d]imidazole-1-carboxamide] the solubility [1] was 0.031 mg/mL (≈ 83.4 µM) and the IC50 (acid ceramidase) was over 1 µM.

In the case of CC(C)CCNC(=O)n1cnc2c(N3CCN(CCC#N)CC3)cccc21 [Example 200, 4-(4-(2-Cyanoethyl)piperazin-1-yl)-N-iso-pentyl-1H-benzo[d]imidazole-1-carboxamide], the solubility [1] is reported as 0.03 mg/mL (≈ 81.4 µM) and the IC50 (acid ceramidase) is reported as 0.2 to 1 µM.

CC(C)CCNC(=O)n1cnc2c(N3CCN(C)C(CF)C3)cccc21 (stereo not drawn) [Example 201, 4-(3-(Fluoromethyl)-4-methylpiperazin-1-yl)-N-isopentyl-1H-benzo[d]imidazole-1-carboxamide] showed a solubility [1] of 0.028 mg/mL (≈ 77.5 µM) and an IC50 (acid ceramidase) of 0.2 to 1 µM.

With CCCN1CCN(c2cccc3c2ncn3C(=O)NCCC(C)C)CC1 [Example 202, N-iso-Pentyl-4-(4-propylpiperazin-1-yl)-1H-benzo[d]imidazole-1-carboxamide] the solubility [1] was 0.015 mg/mL (≈ 42 µM) and the IC50 (acid ceramidase) was 0.2 to 1 µM.

For CC(=O)N1CCN(c2cccc3c2ncn3C(=O)NCCC(C)C)CC1 [Example 203, 4-(4-Acetylpiperazin-1-yl)-N-isopentyl-1H-benzo[d]imidazole-1-carboxamide], the solubility [1] was 0.026 mg/mL (≈ 72.7 µM) and the IC50 (acid ceramidase) was under 0.2 µM.

With CC(C)CCNC(=O)n1cnc2c(N3CCN(C4CN(C)C4)CC3)cccc21 [Example 204, N-iso-Pentyl-4-(4-(1-methylazetidin-3-yl)-piperazin-1-yl)-1H-benzo[d]imidazole-1-carboxamide] the solubility [1] was 0.036 mg/mL (≈ 93.6 µM) and the IC50 (acid ceramidase) was 0.2 to 1 µM.

In the case of CC(C)CCNC(=O)n1cnc2c(N3CC(N4CCN(C)CC4)C3)cccc21 [Example 205, N-iso-Pentyl-4-(3-(4-methylpiperazin-1-yl)-azetidine-1-yl)-1H-benzo[d]imidazole-1-carboxamide], the solubility [1] is reported as 0.031 mg/mL (≈ 80.6 µM) and the IC50 (acid ceramidase) is reported as 0.2 to 1 µM.

Compound CC(C)CCNC(=O)n1cnc2c(N3CCN(C4CC4)C(=O)C3)cccc21 [Example 206, 4-(4-Cyclopropyl-3-oxopiperazin-1-yl)-N-isopentyl-1H-benzo[d]imidazole-1-carboxamide] has a solubility [1] of 0.02 mg/mL (≈ 54.1 µM) and an IC50 (acid ceramidase) of 0.2 to 1 µM.

Compound CC(C)CCNC(=O)n1cnc2c(N3CCN(C(C)C)CC3)cccc21 [Example 207, N-iso-Pentyl-4-(4-isopropylpiperazin-1-yl)-1H-benzo[d]imidazole-1-carboxamide] has a solubility [1] of 0.032 mg/mL (≈ 89.5 µM) and an IC50 (acid ceramidase) of 0.2 to 1 µM.

Work on CCN1CCN(c2cccc3c2ncn3C(=O)NCCC(C)C)CC1 [Example 208] yielded a solubility [1] of 0.031 mg/mL (≈ 90.3 µM) and an IC50 (acid ceramidase) of 0.2 to 1 µM.

With CC(C)CCNC(=O)n1cnc2c(N3CCN4C(=O)CCC4C3)cccc21 (stereo not drawn) [Example 209, N-iso-Pentyl-4-(6-oxohexahydropyrrolo[1,2-a]pyrazin-2(1H)-yl)-1H-benzo[d]imidazole-1-carboxamide] the solubility [1] was 0.024 mg/mL (≈ 65 µM) and the IC50 (acid ceramidase) was 0.2 to 1 µM.

For COc1nc2c(N3CCN(C)CC3)cc(C#N)cc2n1C(=O)NCCC(C)C [Example 210, 6-Cyano-N-iso-pentyl-2-methoxy-4-(4-methylpiperazin-1-yl)-1H-benzo[d]imidazole-1-carboxamide], the solubility [1] was 0.012 mg/mL (≈ 31.2 µM) and the IC50 (acid ceramidase) was under 0.2 µM.

Work on COc1nc2c(N3CCOCC3)cncc2n1C(=O)NCCC(C)C [Example 211, N-iso-Pentyl-2-methoxy-7-morpholino-3H-imidazo[4,5-c]pyridine-3-carboxamide] yielded a solubility [1] of 0.026 mg/mL (≈ 74.8 µM) and an IC50 (acid ceramidase) of under 0.2 µM.

COc1nc2c(N3CCOCC3)cc(F)cc2n1C(=O)NCCC(C)C [Example 212, 6-Fluoro-N-iso-pentyl-2-methoxy-4-morpholino-1H-benzo[d]imidazole-1-carboxamide] gave a solubility [1] of 0.008 mg/mL (≈ 22 µM) and an IC50 (acid ceramidase) of 0.2 to 1 µM.

Work on COc1nc2cnc(N3CCOCC3)cc2n1C(=O)NCCCc1ccccc1 [Example 213a, 2-Methoxy-6-morpholino-N-(3-phenylpropyl)-1H-imidazo[4,5-c]pyridine-1-carboxamide] yielded a solubility [1] of 0.009 mg/mL (≈ 22.8 µM) and an IC50 (acid ceramidase) of under 0.2 µM.

COc1nc2cc(F)c(N3CCOCC3)cc2n1C(=O)NCCCCc1ccccc1 [Example 214, 5-Fluoro-2-methoxy-6-morpholino-N-(4-phenylbutyl)-1H-benzo[d]imidazole-1-carboxamide] gave a solubility [1] of 0.0003 mg/mL (≈ 0.703 µM) and an IC50 (acid ceramidase) of under 0.2 µM.

COc1nc2cc(N3CCOCC3)c(F)cc2n1C(=O)NCCCCc1ccccc1 [Example 215, 6-Fluoro-2-methoxy-5-morpholino-N-(4-phenylbutyl)-1H-benzo[d]imidazole-1-carboxamide] gave a solubility [1] of 0.0003 mg/mL (≈ 0.703 µM) and an IC50 (acid ceramidase) of under 0.2 µM.

With O=C(NCCCc1ccccc1)n1cnc2c(N3CCC4(CC3)COC4)cccc21 [Example 216, N-(3-Phenylpropyl)-4-(2-oxa-7-azaspiro[3.5]nonan-7-yl)-1H-benzo[d]imidazole-1-carboxamide] the solubility [1] was 0.0025 mg/mL (≈ 6.18 µM) and the IC50 (acid ceramidase) was under 0.2 µM.

In the case of O=C(NCCCCc1ccccc1)n1cnc2c(N3CCC4(CC3)COC4)cccc21 [Example 217, N-(4-Phenylbutyl)-4-(2-oxa-7-azaspiro[3.5]nonan-7-yl)-1H-benzo[d]imidazole-1-carboxamide], the solubility [1] is reported as 0.0006 mg/mL (≈ 1.43 µM) and the IC50 (acid ceramidase) is reported as under 0.2 µM.

For CC(=O)N1CCN(c2cccc3c2ncn3C(=O)NCCCc2ccccc2)CC1 [Example 218, 4-(4-Acetylpiperazin-1-yl)-N-(3-phenylpropyl)-1H-benzo[d]imidazole-1-carboxamide], the solubility [1] was 0.024 mg/mL (≈ 59.2 µM) and the IC50 (acid ceramidase) was under 0.2 µM.

For C[C@@H]1CN(c2cccc3c2ncn3C(=O)NCCCc2ccccc2)C[C@H](C)O1 [Example 219, 4-((2S,6R)-2,6-Dimethylmorpholino)-N-(3-phenylpropyl)-1H-benzo[d]imidazole-1-carboxamide], the solubility [1] was 0.0005 mg/mL (≈ 1.27 µM) and the IC50 (acid ceramidase) was under 0.2 µM.

With CC(C)CCNC(=O)n1cnc2c(N3[C@@H]4CC[C@H]3COC4)cccc21 [Example 220, 4-((1R,5S)-3-Oxa-8-azabicyclo[3.2.1]octan-8-yl)-N-isopentyl-1H-benzo[d]imidazole-1-carboxamide] the solubility [1] was 0.004 mg/mL (≈ 11.7 µM) and the IC50 (acid ceramidase) was 0.2 to 1 µM.

Work on CC(C)CCNC(=O)n1cnc2c(N3CC4CCC(C3)O4)cccc21 [Example 221, 4-(8-Oxa-3-azabicyclo[3.2.1]octan-3-yl)-N-isopentyl-1H-benzo[d]imidazole-1-carboxamide] yielded a solubility [1] of 0.005 mg/mL (≈ 14.6 µM) and an IC50 (acid ceramidase) of 0.2 to 1 µM.

COc1nc2ccc(N3CCOCC3)cc2n1C(=O)NCCCc1ccc(F)cc1 [Example 221a] showed a solubility [1] of 0.004 mg/mL (≈ 9.7 µM) and an IC50 (acid ceramidase) of under 0.2 µM.

For COc1nc2cc(N3CCOCC3)ccc2n1C(=O)NCCCc1ccc(F)cc1 [Example 221b], the solubility [1] was 0.015 mg/mL (≈ 36.4 µM) and the IC50 (acid ceramidase) was under 0.2 µM.

In the case of CC(=O)N1CCN(c2cccc3c2ncn3C(=O)NCC2(CC(C)C)CC2)CC1 [Example 222, 4-(4-Acetylpiperazin-1-yl)-N-((1-iso-butyl-cyclopropyl)methyl)-1H-benzo[d]imidazole-1-carboxamide], the solubility [1] is reported as 0.007 mg/mL (≈ 17.6 µM) and the IC50 (acid ceramidase) is reported as under 0.2 µM.

Compound CC(=O)N1CCN(c2cccc3c2ncn3C(=O)NCCCCC(C)C)CC1 [Example 223, 4-(4-Acetylpiperazin-1-yl)-N-(5-methylhexyl)-1H-benzo[d]imidazole-1-carboxamide] has a solubility [1] of 0.015 mg/mL (≈ 38.9 µM) and an IC50 (acid ceramidase) of under 0.2 µM.
